“Also recorded” adds a separate entry of the source.
What was measured:
[1] = tested on: VEGFR-1 (Flt-1)/Fc chimera binding to VEGF; assay: Competitive ELISA, binding of sVEGFR-1/Fc to immobilized VEGF; parameters: species or system human; conditions: 50 ng/ml sVEGFR-1 (Flt-1)
Procedure: (§2) 96 well EIA/RIA strip plates (COSTAR) were coated with 80 ng/ml recombinant VEGF overnight at 4°C, washed and blocked with blocking buffer (1% BSA and 5% sucrose) overnight at 4°C. Series of dilutions were prepared for recombinant proteins representing WT-TIMP-3, NT2:CT3 and N-T3 in PBS or synthetic peptides corresponding to T3-loop 5, T3-loop 6, T3-N or T3-tail peptides in 0.5 M Tris-HCl (pH 7.5). The diluents were mixed with 50 ng/ml recombinant human VEGFR-2 (KDR/Fc chimera, recombinant human VEGFR-1 (Flt-1)/Fc chimera (R&D Systems, Minneapolis, MN) or control human lgG (Sigma Aldrich, St Louis, MO). The mixtures were then added to the VEGF-coated well in a final volume of 100 µL in PBS and incubated for 2 hours at room temperature. Bound VEGFR-2 was detected by HRP-conjugated anti-human lgG(Fc specific) (1∶1000).

[2] = tested on: ERK1 (p44) and ERK2 (p42) in PAE/KDR cells; assay: VEGF-stimulated ERK1/2 (MAP kinase) phosphorylation (western blot); type: cell-based, Porcine; conditions: 20 µM peptide
Procedure: (§1) Porcine Aortic Endothelial cells expressing VEGFR-2 (PAEKDR) were cultured in Ham’s F-12/DMEM medium supplemented with 10% fetal bovine serum (FBS) (Hyclone), 50 units/ml penicillin and 50 µg/ml streptomycin as described previously. Recombinant human VEGF was a kind gift from Genentech, CA. Antibodies: Anti-Phosphotyrosine clone 4G10 (Upstate Biotechnology/Millipore, Billerica, MA), monoclonal anti-Flk-1 (A-3) (Santa Cruz Biotechnology, Santacruz, CA), MAPK and phospho-specific MAPK antibodies (Calbiochem-Novabiochem Corporation/EMD chemicals, Gibbstown, NJ).
Immunoprecipitates of cell lysates with the indicated antibodies were subjected to SDS-PAGE and western blot analysis. Proteins were detected with either a HRP-conjugated anti-rabbit or anti-mouse IgG antibody (Amersham Pharmacia Biotech., Piscataway, NJ) followed by ECL. […]
Figure 3 Effects of TIMP-3 peptides on VEGF signaling in endothelial cells. […] Cell lysates were separated by SDS-PAGE (10%) and analyzed by immunoprecipitation with an anti-KDR anti-body followed by immunoblotting with an anti-phosphotyrosine antibody, 4G10 (top panel). KDR protein was analyzed by immunoprecipitation and immunoblotting of cell lysates using anti-KDR antibody (bottom panel). (b) Densitometric quantitation of 210-kDa bands for phospho- or total mature form of KDR. […]

PAE/KDR cells = assay: VEGF-induced endothelial cell proliferation; type: cell-based, Porcine; conditions: 1 µM peptide, 5 days; for Effect on VEGF-induced endothelial cell proliferation (in words): VEGF 5 ng/ml, ** p<0.01 vs VEGF control in figure legend
Procedure: as §1
Cells were seeded at a density of 2000 cells/well in 24 well culture plates and cultured for 24 h in growth medium. After synchronization overnight in serum-free medium supplemented with 0.1% BSA, the cells were stimulated with or without VEGF […] in the presence or absence of the indicated concentrations of TIMP-3 peptides. After a 5-day incubation, cells were trypsinized and counted using a Coulter particle counter.
Figure 6 Effects of TIMP-3 peptides on VEGF-mediated EC proliferation. […] Serum-starved cells were incubated with or without VEGF (5 ng/ml) in the presence or absence of the 1 µM of TIMP-3 peptides for 5 days.

[3] = tested on: laser-induced CNV in C57BL/6J mice; assay: Laser-induced choroidal neovascularization (CNV); type: in vivo, mouse; conditions: intravitreal, immediately after laser burn, 14 days, C57BL6 mice
Procedure: All animal studies were approved by the Animal Care and Use Committee of the Cleveland Clinic (IACUC number ARC-08792) and conformed to the National Institutes of Health Guide for the Care and Use of Animals in Research and the ARVO statement for the use of animals in ophthalmic and vision research. All surgery was performed under ketamine/xylazine anesthesia with maximum effort devoted to minimizing suffering. Laser photocoagulation-induced rupture of Bruch’s membrane was used to generate CNV as previously described. Briefly, 4–5 week old C57BL/6J mice were anesthetized with ketamine hydrochloride (100 mg/kg body weight) and xylazine (10 mg/kg body weight) followed by1% Tropicamide (Alcon laboratories, Inc., Fort Worth, TX) for pupillary dilation. Three burns of 532-nm diode laser photocoagulation (Oculight; Iridex, Mountain View California; 50-µm spot size, 0.1 second duration, 200 mW) were delivered to each retina using a slit lamp delivery system and a hand held coverslip as a contact lens. Burns were performed in the 9, 12 and 3 o’clock positions of the posterior pole of the retina. […] Two weeks later, mice were anesthetized and perfused with fluorescein-labeled dextran (2×10^6 average molecular weight, Sigma Aldrich), choroidal flatmounts were prepared and CNV area measured. […]
Five mice were used for each dose of peptide, with three burns in each eye (n = 15–18 successful burns in each group). For quantitative analysis of lesion intensity and size, CNV images were batch processed using a custom macro generated in Image-Pro Plus 5.1 (Media Cybernetics, Silver Spring, MD). […] Mean intensity (range between 10–255 gray levels), perimeter, area, and mean diameter (pixels) were calculated for each ROI and exported to excel. […]
Figure 7 Inhibition of laser-induced CNV by TIMP-3 peptides. […] Effect of Tail peptides on CNV was evaluated by Fluorescein angiogram and Scanning Laser Ophthalmoscopy (SLO). […] CNV lesion size (area X density) was calculated for each dose of T3N-peptide (Fig. 7g), Loop6-peptide (Fig. 7h) and Tail-peptide (fig. 7i).

[4] = target: VEGFR-2 (KDR/Fc chimera) binding to VEGF (Homo sapiens, UniProt P35968); assay: Competitive ELISA, binding of sVEGFR-2/Fc to immobilized VEGF; conditions: competitive ELISA, 50 ng/ml sVEGFR-2, peptides in 0.5 M Tris-HCl pH 7.5
Sequence of VEGFR-2 (KDR/Fc chimera) binding to VEGF (P35968 with tags, fused parts or gaps limits assumed): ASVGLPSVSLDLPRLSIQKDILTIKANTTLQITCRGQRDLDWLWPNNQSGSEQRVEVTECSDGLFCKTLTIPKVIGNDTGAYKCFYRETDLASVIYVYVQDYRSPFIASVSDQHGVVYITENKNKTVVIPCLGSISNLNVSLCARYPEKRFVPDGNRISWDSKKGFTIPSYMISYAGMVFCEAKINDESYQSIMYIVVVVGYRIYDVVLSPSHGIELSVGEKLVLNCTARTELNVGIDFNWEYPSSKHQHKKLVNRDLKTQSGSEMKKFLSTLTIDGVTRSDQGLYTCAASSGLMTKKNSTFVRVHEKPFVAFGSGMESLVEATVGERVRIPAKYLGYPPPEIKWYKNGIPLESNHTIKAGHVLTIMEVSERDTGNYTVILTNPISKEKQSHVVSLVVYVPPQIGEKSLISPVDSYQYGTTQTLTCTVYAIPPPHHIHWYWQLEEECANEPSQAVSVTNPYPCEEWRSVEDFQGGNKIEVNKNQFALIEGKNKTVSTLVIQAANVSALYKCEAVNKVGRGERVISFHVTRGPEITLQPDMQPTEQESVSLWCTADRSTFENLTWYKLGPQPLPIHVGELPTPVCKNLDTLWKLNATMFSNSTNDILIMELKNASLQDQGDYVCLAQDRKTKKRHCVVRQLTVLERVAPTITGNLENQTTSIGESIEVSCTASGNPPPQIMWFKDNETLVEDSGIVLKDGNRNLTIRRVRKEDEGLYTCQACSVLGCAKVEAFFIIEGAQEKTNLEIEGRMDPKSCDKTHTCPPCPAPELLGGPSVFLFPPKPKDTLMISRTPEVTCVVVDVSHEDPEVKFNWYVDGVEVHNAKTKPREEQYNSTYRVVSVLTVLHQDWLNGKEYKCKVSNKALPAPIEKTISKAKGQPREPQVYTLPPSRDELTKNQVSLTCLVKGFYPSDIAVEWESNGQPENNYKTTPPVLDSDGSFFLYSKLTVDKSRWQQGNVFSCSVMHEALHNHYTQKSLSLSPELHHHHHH
Procedure: as §2

Sequence	Effect of synthetic peptides on VEGF binding to VEGFR-1 (in words) [1]	Inhibition of VEGF-stimulated MAP kinase activation [2]	Possible induction of endothelial cell proliferation (PAE/KDR cells)	Effect on VEGF-induced endothelial cell proliferation (in words) (PAE/KDR cells)	Inhibition of laser-induced CNV (overall statement) [3]	Effect of synthetic peptides on VEGF binding to sVEGFR-2 (in words) [4]	Effect of synthetic peptides on VEGF binding to sVEGFR-2 (in words) ([4]; listed as Loop5)	Inhibition of laser-induced CNV (overall statement) ([3]; listed as N-terminal)
KIKSCYYLPCFVTS [T3-loop 5]	unable to inhibit sVEGFR-1-VEGF complexes	neither loop 5 nor N-peptide, even at higher concentrations (20 µM) inhibited VEGF-stimulated MAP kinase activation	may in fact induce proliferation of endothelial cells	neither T3-loop 5 nor T3-N peptide showed inhibitory properties	no angio-inhibitory activity in vitro or in vivo	did not show any inhibitory activity	have no effect on sVEGFR-2-VEGF complexes	–
RGFTKMPHVQYIHTEASESL [T3-N peptide]	unable to inhibit sVEGFR-1-VEGF complexes	neither loop 5 nor N-peptide, even at higher concentrations (20 µM) inhibited VEGF-stimulated MAP kinase activation	may in fact induce proliferation of endothelial cells	neither T3-loop 5 nor T3-N peptide showed inhibitory properties	not N-peptide inhibit laser-induced CNV	did not show any inhibitory activity; also recorded: have no effect on sVEGFR-2-VEGF complexes	–	no angio-inhibitory activity in vitro or in vivo

Reference: PMC3585964, “Tissue Inhibitor of Metalloproteinases-3 Peptides Inhibit Angiogenesis and Choroidal Neovascularization in Mice” (PLoS ONE, 2013)
